US20210161994A1, “IMPLANTABLE DEVICE FOR THE DELIVERY OF OCTREOTIDE AND METHODS OF USE THEREOF” (Endo Pharmaceuticals Solutions Inc., priority 2008, published 2021)

Tests used:
[1] = Release rate of octreotide from polyurethane implantable devices; assay type: physicochemical; conditions: Tecophilic HP-60D-05, 5.5% EWC
Description: (§1) Tables 2A-D show release rates of octreotide from three different classes of polyurethane compounds (Tecophilic®, Tecoflex® and Carbothane®). The release rates have been normalized to surface area of the implant, thereby adjusting for slight differences in the size of the various implantable devices. Octreotide is water-soluble as indicated by the Log P value; for the purposes of the data provided, a Log P value of greater than about 2.0 is considered to be not readily soluble in aqueous solution. The polyurethanes were selected to have varying affinities for water soluble active agents and varying flexibility (as indicated by the variation in flex modulus).
Polyurethanes are available or can be prepared, for example, with a range of EWCs or flex moduli (Table 2). Tables 2A-B show normalized release rates for various active ingredients from polyurethane compounds. Tables […] show the non-normalized release rates for the same active ingredients, together with implant composition.

[2] = Log P (partition coefficient); assay type: physicochemical
Description: as §1
The solubility of an active agent in an aqueous environment can be measured and predicted based on its partition coefficient (defined as the ratio of concentration of compound in aqueous phase to the concentration in an immiscible solvent). The partition coefficient (P) is a measure of how well a substance partitions between a lipid (oil) and water. The measure of solubility based on P is often given as Log P. In general, solubility is determined by Log P and melting point (which is affected by the size and structure of the compounds). Typically, the lower the Log P value, the more soluble the compound is in water. […]

SMILES: C[C@@H](O)[C@@H]1NC(=O)[C@H](CCCCN)NC(=O)[C@@H](Cc2c[nH]c3ccccc23)NC(=O)[C@H](Cc2ccccc2)NC(=O)[C@@H](NC(=O)[C@H](N)Cc2ccccc2)CSSC[C@@H](C(=O)N[C@H](CO)[C@@H](C)O)NC1=O [Octreotide Acetate]
- non-normalized release rate [1]: 0
- release rate normalized to surface area of the implant ([1]; 10% HPC, 2% SA, 50 mg API): 0
- logP [2]: 0.43
